This note sets out measurements from ChEMBL document CHEMBL2429789, “Discovery, Design, and Optimization of Isoxazole Azepine BET Inhibitors” (ACS Med Chem Lett, 2013).

Each structure is given as a SMILES string. Active and inactive are the calls of the source. The calls are words filed in the database; no cut-off is given here.

Series [1] addresses T1, Bromodomain-containing protein 4 (Homo sapiens, UniProt O60885). Briefly: Inhibition of BRD4 in human Raji cells assessed as reduction of MYC expression after 4 hrs. Type of series: cell-based.
The target of series [2] is T1, Bromodomain-containing protein 4. Briefly: Inhibition of His-FLAG-tagged BRD4 binding domain1 (unknown origin) binding to H4-TetraAc-biotin peptide after 20 mins by AlphaLISA. Background: Alpha assays give light when donor and acceptor beads are brought close together.
A further series has as its system Plasma. Briefly: Stability of the compound in rat plasma. Type of series: ADME, cell-free.
Series [3] is described as follows: Plasma protein binding in human. The format is ADME, cell-free. The note with it: read-out: PPB (converted).
A short description of series [4]: Intrinsic clearance in human liver microsomes. Type of series: ADME, Microsome. The conditions noted are these: read-out: CLH.
The target of a further series is CYP3A4 (Homo sapiens, UniProt P08684). Briefly: Inhibition of CYP3A4 (unknown origin) at 10 uM. Type of series: ADME.
Chain of CYP3A4 (P08684 whole entry): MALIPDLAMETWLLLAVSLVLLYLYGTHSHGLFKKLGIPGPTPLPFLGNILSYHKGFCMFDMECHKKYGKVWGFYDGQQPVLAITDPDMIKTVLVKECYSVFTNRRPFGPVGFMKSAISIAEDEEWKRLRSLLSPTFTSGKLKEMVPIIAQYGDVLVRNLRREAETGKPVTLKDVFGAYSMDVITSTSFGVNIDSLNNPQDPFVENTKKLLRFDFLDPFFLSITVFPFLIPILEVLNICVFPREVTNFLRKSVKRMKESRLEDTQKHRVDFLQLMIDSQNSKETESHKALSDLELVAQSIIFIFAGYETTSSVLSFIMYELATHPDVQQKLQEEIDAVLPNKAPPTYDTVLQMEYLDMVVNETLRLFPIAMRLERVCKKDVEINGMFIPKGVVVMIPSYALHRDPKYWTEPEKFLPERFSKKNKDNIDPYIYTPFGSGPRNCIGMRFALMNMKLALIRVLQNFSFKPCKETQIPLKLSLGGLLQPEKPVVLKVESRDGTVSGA
A short description of series [5]: Intrinsic clearance in rat liver microsomes. The format is ADME, Microsome. The note with it: read-out: CLH. Background: Liver microsomes are vesicles of endoplasmic reticulum, rich in cytochrome P450 enzymes.
Series [6] is described as follows: Half life in rat at 1 mg/kg, iv. The format is ADME, organism-based. Also on record: dose 1 mg/kg, route intravenous. The conditions noted are these: in vivo.
Series [7] in a line: Oral bioavailability in rat at 5 mg/kg. Type of series: ADME, organism-based. The note with it: in vivo.
The nature of series [8]: AUC in rat at 5 mg/kg, po. Type of series: ADME, organism-based. Also noted: dose 5 mg/kg, route oral. The note with it: plasma.
In a further series the test system is Rattus norvegicus. Briefly: […] clearance in rat at 1 mg/kg, iv. The conditions noted are these: in vivo. The format is ADME, organism-based. Also on record: dose 1 mg/kg, route intravenous.
Series [9] in a line: Volume of distribution at steady state in rat at 1 mg/kg, iv. Type of series: ADME, organism-based. Also on record: dose 1 mg/kg, route intravenous. The conditions noted are these: in vivo, read-out: Vdss.
Series [10] can be described thus: AUC in mouse at 5 mg/kg, po. The format is ADME, organism-based. Also noted: dose 5 mg/kg, route oral. The conditions noted are these: plasma.
The subject of another series is Canis familiaris. Briefly: Intrinsic clearance in dog at 1 mg/kg, iv. The conditions noted are these: in vivo. Type of series: ADME, organism-based, Canis lupus familiaris. Also on record: dose 1 mg/kg, route intravenous.
The nature of series [11]: Half life in dog at 1 mg/kg, iv. Type of series: ADME, organism-based, Canis lupus familiaris. Also noted: dose 1 mg/kg, route intravenous. The note with it: in vivo.
A short description of series [12]: Intrinsic clearance in mouse liver microsomes. Type of series: ADME, Microsome. The note with it: read-out: CLH.
The nature of series [13]: Plasma protein binding in mouse. The format is ADME, cell-free. The note with it: read-out: PPB (converted).
The test system of series [14] is Mus musculus. Briefly: Inhibition of MYC expression in tumor of NOD/SCID Harlan mouse xenografted with human Raji cells at 100 mg/kg, po after 8 hrs relative to control. Type of series: functional, organism-based. Also noted: dose 100 mg/kg. Background: A xenograft is tissue or cells of one species grown in another, often human tumour cells in immunodeficient mice.

Series [15] can be described thus: Plasma protein binding in rat. The conditions noted are these: read-out: PPB (converted). Type of series: ADME, cell-free.
Series [16] deals with Mus musculus. Briefly: Inhibition in MYC expression in tumor of NOD/SCID Harlan mouse xenografted with human Raji cells at 100 mg/kg, po after 4 hrs. Type of series: functional.
Series [17] can be described thus: Intrinsic clearance in dog liver microsomes. Type of series: ADME, Canis lupus familiaris, Microsome. The note with it: read-out: CLH.
Series [18] can be described thus: Volume of distribution at steady state in dog at 1 mg/kg, iv. Type of series: ADME, organism-based, Canis lupus familiaris. Also on record: dose 1 mg/kg, route intravenous. The note with it: in vivo, read-out: Vdss.
The subject of series [19] is Mus musculus. Briefly: Inhibition in MYC expression in tumor of po dosed NOD/SCID Harlan mouse xenografted with human Raji cells. Type of series: functional, organism-based.
A short description of series [20]: Drug uptake in tumor of NOD/SCID Harlan mouse xenografted with human Raji cells at 100 mg/kg, po. Type of series: ADME, organism-based, Neoplasm. Also noted: dose 100 mg/kg, route oral. The conditions noted are these: in vivo, read-out: Drug uptake.
Series [21] relates to Mus musculus. Briefly: Inhibition of MYC expression in tumor of NOD/SCID Harlan mouse xenografted with human Raji cells at 100 mg/kg, po up to 8 hrs. The format is functional, organism-based. Also on record: dose 100 mg/kg.
In series [22] the test system is Mus musculus. Briefly: Inhibition in MYC expression in tumor of NOD/SCID Harlan mouse xenografted with human Raji cells at 100 mg/kg, po. Type of series: functional, organism-based. Also on record: dose 100 mg/kg.

Consider `Cc1noc2c1-c1sc(C)c(C)c1C(c1ccc(C#N)cc1)=N[C@H]2[C@@H](C)C(N)=O`, for which the results for the IC50 in series [1] and in series [2] were 710 nM and 250 nM, respectively.
As to `Cc1noc2c1-c1sc(C)c(C)c1C(C1CCOCC1)=N[C@H]2CC(N)=O`, the IC50 (usually the concentration that gives 50% inhibition) in series [2] was 6200 nM.
On the same count and under the same terms, for `Cc1noc(N)c1-c1ccccc1` the value was 33000 nM.
Consider `Cc1noc2c1-c1sc(C)c(C)c1C(c1ccc(Cl)cn1)=N[C@H]2CC(N)=O`, for which the IC50 worked out at 240 nM in [1] and 72 nM in series [2].
Compound `Cc1noc2c1-c1sc(C)c(C)c1C(N1CCOCC1)=N[C@H]2CC(N)=O` yielded an IC50 in series [2] of 1100 nM.
Consider `Cc1noc2c1-c1sc(C)c(C)c1C(c1ccccc1Cl)=N[C@H]2CC(N)=O`, for which the IC50 in [1] came to 1900 nM; in series [2], 250 nM.
With `Cc1noc2c1-c1sc(C)c(C)c1C(c1ccccc1)=N[C@H]2CC(N)=O`, the Stability result in the series with Plasma is “Unstable”. Also, the IC50 in series [1] amounted to 180 nM; in series [2] it was 29 nM. In addition, the fraction unbound in series [3] was 0.018. In addition, the microsomal CLint amounted to 2.4 µL/min/mg in [4] and 160 µL/min/mg in [5]. Also, on CYP3A4, 10 µM produced 1% inhibition.
On to `Cc1noc2c1-c1sc(C)c(C)c1C(c1cccc(Cl)c1)=N[C@H]2CC(N)=O`, for which the IC50 in [1] was determined as 470 nM; in [2] it was 74 nM.
Turning to `Cc1noc2c1-c1sc(C)c(C)c1C(c1ccc(C#N)cc1)=N[C@H]2CC(N)=O`, in series [6], the half-life – broadly, how long it takes for the measured level to halve – was 23.6 min. Besides, the bioavailability (in general, dose-corrected exposure relative to a reference, in per cent) in series [7] worked out at 44%. In addition, in series [8], the AUC – broadly, the area under the concentration-time curve, a measure of exposure – turned out to be 504 ng·h/mL. Also, the Stability entry with Plasma is given as “Unstable”. In addition, the IC50 in [1] came out at 91 nM; in [2], 33 nM. Further, the fraction unbound in [3] is 0.041. In the series with Rattus norvegicus, this compound displayed a CL of 4.35 L/h/kg. Besides, the microsomal CLint in [4] was found to be 4.6 µL/min/mg; in series [5] it was 8.9 µL/min/mg. Besides, at 10 µM the inhibition against CYP3A4 was 0%. The Vd in series [9] came out at 2.22 L/kg.
For the compound `COC(=O)NC[C@@H]1N=C(c2ccc(Cl)cc2)c2c(sc(C)c2C)-c2c(C)noc21`, the IC50 in series [1] was 1900 nM; in [2], 86 nM.
As to `Cc1noc2c1-c1sc(C)c(C)c1C(c1ccc(Cl)cc1)=N[C@H]2Cc1ncc[nH]1`, the IC50 in series [1] was determined as 3600 nM; in [2], 200 nM.
The like results for `CCCC1=N[C@@H](CC(N)=O)c2onc(C)c2-c2sc(C)c(C)c21` were, in that order, 1500 nM and 300 nM.
Taken in the same sequence, the figures for `Cc1noc2c1-c1sc(C)c(C)c1C(c1ccc(Cl)cc1)=N[C@H]2Cc1nccs1` were 2100 nM and 190 nM.
The like results for `CC(=O)NC[C@@H]1N=C(c2ccc(Cl)cc2)c2c(sc(C)c2C)-c2c(C)noc21` were, in that order, 2200 nM and 190 nM.
Turning to `Cc1noc2c1-c1sc(C)c(C)c1C(Cc1ccccc1)=N[C@H]2CC(N)=O`, in series [2], the IC50 was determined as 5700 nM.
Regarding `CCNC(=O)C[C@@H]1N=C(c2ccc(Cl)cc2)c2c(sc(C)c2C)-c2c(C)noc21`, the IC50 in [1] was 320 nM; in series [2], 36 nM.
Consider `CCNC(=O)C[C@H]1N=C(c2ccc(Cl)cc2)c2c(sc(C)c2C)-c2c(C)noc21`, for which the IC50 in series [2] amounted to 2100 nM.
As to `Cc1noc2c1-c1sc(C)c(C)c1C(c1ccc(Cl)cc1)=N[C@H]2CC(=O)OC(C)(C)C`, the IC50 in [1] is 2100 nM; in series [2] it was 290 nM.
In the case of `Cc1noc2c1-c1sc(C)c(C)c1C(c1ccc(N)nc1)=N[C@H]2CC(N)=O`, in the series on Plasma, the Stability entry is “Unstable”. The IC50 in series [1] amounted to 380 nM; in series [2], 73 nM. The fraction unbound in series [3] is 0.006. Moreover, the microsomal CLint worked out at 5.4 µL/min/mg in series [4] and 18 µL/min/mg in series [5]. 10 µM produced 20% inhibition against CYP3A4.
In turn, `Cc1noc2c1-c1sc(C)c(C)c1C(c1cncnc1)=N[C@H]2CC(N)=O` gave an IC50 in series [2] of 2500 nM.
For `Cc1cc(Cl)ccc1C1=N[C@@H](CC(N)=O)c2onc(C)c2-c2sc(C)c(C)c21`, the figures for the concentration for half-maximal inhibition (IC50) in series [1] and in series [2] were 160 nM and 42 nM, respectively.
As to `Cc1noc2c1-c1sc(C)c(C)c1C(c1ccc(Cl)cc1)=N[C@H]2CC(N)=O`, the AUC was 723 ng·h/mL in [10] and 605 ng·h/mL in [8]. The results for the half-life in series [6] and in series [11] were 83.4 min and 180 min, respectively. The CL worked out at 0.32 L/h/kg in the series on Canis familiaris and 2.77 L/h/kg in the series on Rattus norvegicus. The bioavailability in [7] came to 31%. The microsomal CLint in series [12] was determined as 140 µL/min/mg; in series [17], 11 µL/min/mg; in [4], 5.5 µL/min/mg; in series [5], 27 µL/min/mg. In addition, the fraction unbound in [13] is 0.019; in series [15] it was 0.008; in series [3], 0.006. In the series with Mus musculus [14], the inhibition (in general, the drop in the measured response relative to a control, in per cent) is “inactive”. Moreover, the IC50 in [1] worked out at 140 nM; in series [2] it was 26 nM. Besides, at 100 mg/kg the inhibition in vivo in the series with Mus musculus [16] was 75%. Moreover, the Vd amounted to 1.27 L/kg in series [18] and 2.45 L/kg in series [9]. For the same compound, in the series on Mus musculus [19], the inhibition result is “Dose-dependent effect”. For the same compound, the concentration in series [20] is 5 µM. Further, the inhibition entry in the series with Mus musculus [21] and with Mus musculus [22] was “Active” each time. At CYP3A4, this compound yielded an inhibition at 10 µM of 20%.
